{"source": "patent US20100008898A1", "about": "“CHYMOTRYPSIN FROM LUCILIA SERICATA LARVAE AND ITS USE FOR THE TREATMENT OF WOUNDS” (priority 2006, published 2010)", "key": {"ES": {"tested_on": "ES", "assay": "ES activity after incubation with proteinase inhibitors", "parameters": "species or system Lucilia sericata"}, "fibroblasts": {"tested_on": "fibroblasts", "assay": "Fibroblast adhesion to fibronectin-coated surface (ATP assay)", "format": "cell-based", "details": "for cell adhesion: 1.6 μg/ml commercial trypsin", "procedure": "(§1) FIG. 10 is two graphs showing the effect of ES, trypsin, chymotrypsin and trypsin/chymotrypsin mix upon fibroblast cell adhesion to a FN-coated surface, following 24 h incubation, in relation to each enzyme concentration's proteolytic activity. Such activity was assessed by monitoring the release of 7-amino-4-methylcoumarin (AMC) from synthetic peptide substrates for a. trypsin or b. chymotrypsin. Cell adhesion was measured using a firefly luciferase-based luminescent adenosine triphosphate (ATP) assay. Results were expressed as mean % cell adhesion of the control±1SD (n=3).\nThe present inventors undertook a further experiment to compare the effect of the ES chymotrypsin with a commercially available bovine chymotrypsin. The effect of ES upon fibroblast adhesion to fibronectin was therefore compared with commercially available preparations of trypsin and chymotrypsin. This was achieved by seeding fibroblasts upon a fibronectin-coated surface in the presence of various concentrations of ES, commercial trypsin or commercial chymotrypsin. […] An adenosine triphosphate (ATP) assay was then applied in order to quantify the relative numbers of cells remaining upon the surface according to the concentration of ATP detected."}, "[1]": {"assay": "Chymotryptic activity, release of AMC from fluorescent peptide substrate", "format": "biochemical", "procedure": "as §1\n(§2) Chymotryptic/tryptic activity was assessed by monitoring the release of 7-amino-4-methylcoumarin (AMC) from Suc-Ala-Ala-Pro-Phe-AMC (chymotryptic) and Tosyl-Gly-Pro-Arg-AMC (tryptic). 50 μl of each fraction was incubated with 150 μl of substrate (5 μM) diluted in PBS. Samples were incubated at 37° C. for 30 minutes after which the fluorescence was measured (excitation 365 nm, emission detection 465 nm) using a Dynex MFX microplate fluorimeter. Proteolytic activity is expressed as the number of fluorescence units emitted over 30 minutes following the deduction of a time zero reading."}, "[2]": {"assay": "Tryptic activity, release of AMC from fluorescent peptide substrate", "format": "biochemical", "details": "1.6 μg/ml commercial trypsin vs 5 μg/ml ES", "procedure": "as §1, §2"}, "[3]": {"details": "0.1 μg/ml commercial chymotrypsin"}, "[4]": {"details": "0.2 μg/ml commercial chymotrypsin"}}}
{"molecule": "O=S(=O)(F)Cc1ccccc1", "note": "[PMSF, phenyl methanesulphonyl fluoride]", "values": [{"measurement": "tissue remodelling and regeneration properties of the ES after incubation with inhibitor", "setting": "ES", "value": "lost or inhibited"}]}
{"molecule": "chymotrypsin [commercial chymotrypsin]", "values": [{"measurement": "fibroblast adhesion", "setting": "fibroblasts; [3]", "value": "no ability to modify fibroblast adhesion"}, {"measurement": "fibroblast adhesion", "setting": "fibroblasts; [4]", "value": "no effect upon fibroblast adhesion"}, {"measurement": "activity against chymotrypsin-specific substrate relative to ES", "setting": "[1]; [3]", "value": "94.1 % of the activity of 5 μg/ml ES"}, {"measurement": "activity against chymotrypsin-specific substrate relative to ES", "setting": "[1]; [4]", "value": "204.9 % of the activity of 5 μg/ml ES"}]}
{"molecule": "trypsin [commercial trypsin]", "values": [{"measurement": "activity against trypsin-specific substrate relative to ES", "setting": "[2]", "value": "103.2 % of the activity of ES"}, {"measurement": "cell adhesion", "setting": "fibroblasts; 24 hours incubation", "value": "34.9 % of the control"}, {"measurement": "cell adhesion", "setting": "fibroblasts; 48 hours incubation", "value": "24.7 % of the control"}]}
{"molecule": "N=C(N)c1ccc(CS(=O)(=O)F)cc1", "note": "[APMSF, 4-(amidinophenyl) methane sulphonyl fluoride]", "values": [{"measurement": "tissue remodelling and regeneration properties of the ES after incubation with inhibitor", "setting": "ES", "value": "not lost/inhibited"}]}
{"molecule": "Soybean Trypsin Inhibitor (protein, UniProt P01070 25-205, looked up) Trypsin inhibitor A: DFVLDNEGNPLENGGTYYILSDITAFGGIRAAPTGNERCPLTVVQSRNELDKGIGTIISSPYRIRFIAEGHPLSLKFDSFAVIMLCVGIPTEWSVVEDLPEGPAVKIGENKDAMDGWFRLERVSDDEFNNYKLVFCPQQAEDDKCGDIGISIDHDDGTRRLVVSKNKPLVVQFQKLDKESL", "values": [{"measurement": "ability of ES to enhance fibroblast migration and degrade extra-cellular matrix proteins after incubation with inhibitor", "setting": "ES", "value": "removes the ability of the ES to enhance fibroblast migration and its ability to degrade extra-cellular matrix proteins"}]}
